From article PMC12820599, “Structural characterisation of nucleotide sugar short‐chain dehydrogenases/reductases from the thermophilic pseudomurein‐containing methanogen Methanothermobacter thermautotrophicus ΔH” (The Febs Journal, 2025)

Tests used:
Type in all cases: binding
Mth373 [1] = target: T1, Mth373 (Methanothermobacter thermautotrophicus, UniProt O26473); experiment: X-ray crystal structure ([…] and […] Å); conditions: 2.0 mM NADH added; coenzyme site of each monomer; printed as NADH, NAD(H) and NAD
T1 construct: gene MTH_373; recombinant hexahistidine-tagged, E. coli LOBSTR BL21*; 311-residue monomer; dimer
T1 sequence (O26473 entry or part of it): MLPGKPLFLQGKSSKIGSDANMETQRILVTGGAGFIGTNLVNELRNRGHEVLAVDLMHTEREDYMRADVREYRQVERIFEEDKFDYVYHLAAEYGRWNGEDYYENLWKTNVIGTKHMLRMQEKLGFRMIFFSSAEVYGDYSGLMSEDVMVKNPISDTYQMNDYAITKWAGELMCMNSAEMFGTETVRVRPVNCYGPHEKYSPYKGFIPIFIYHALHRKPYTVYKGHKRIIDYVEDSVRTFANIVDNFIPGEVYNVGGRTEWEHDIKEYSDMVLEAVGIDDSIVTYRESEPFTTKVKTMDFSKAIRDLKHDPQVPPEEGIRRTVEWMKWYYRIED

Mth375 [2] = target: T2, Mth375 (Methanothermobacter thermautotrophicus, UniProt O26475); experiment: X-ray crystal structure ([…] Å); conditions: coenzyme site (Rossmann fold); no coenzyme added (co-purified); redox state not settled (NAD/NADH/NAD(H) printed); UDP bound
T2 construct: gene MTH_375; recombinant hexahistidine-tagged (pET100D), E. coli BL21-Rosetta 2; 332 residues seen; dimer; Cys131 (and Cys13 in Mth375_NU) modified by beta-mercaptoethanol
T2 sequence (O26475 entry or part of it): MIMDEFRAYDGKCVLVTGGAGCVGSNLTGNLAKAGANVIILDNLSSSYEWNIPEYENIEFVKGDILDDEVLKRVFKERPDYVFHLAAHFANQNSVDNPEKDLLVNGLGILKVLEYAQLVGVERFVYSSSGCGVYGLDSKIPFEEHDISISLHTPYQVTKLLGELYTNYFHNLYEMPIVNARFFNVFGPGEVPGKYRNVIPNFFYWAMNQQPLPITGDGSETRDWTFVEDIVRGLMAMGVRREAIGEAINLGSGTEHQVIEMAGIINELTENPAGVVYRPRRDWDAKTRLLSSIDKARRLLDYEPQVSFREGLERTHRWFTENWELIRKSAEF

Mth373 [3] = target: T1, Mth373; experiment: X-ray crystal structure ([…] Å); conditions: co-crystallised with 1.0 mM UDP and 2.0 mM NADH; active site of both monomers; pH 5.0; UDP also in one monomer of 9AR1
Mth375 [4] = target: T2, Mth375; experiment: X-ray crystal structure ([…] and […] Å); conditions: co-crystallised with 1.0 mM UDP; active site; NAD(H) (6PNL) or AMP (6PMH) also bound; 21 °C

Row | SMILES | X-ray crystal structure (1.96 and 2.00 Å) (Mth373 [1]) | X-ray crystal structure (2.01 Å) (Mth375 [2]) | X-ray crystal structure (2.00 Å) (Mth373 [3]) | X-ray crystal structure (2.01 and 2.30 Å) (Mth375 [4])
1 | NC(=O)C1=CN([C@@H]2O[C@H](COP(=O)(O)OP(=O)(O)OC[C@H]3O[C@@H](n4cnc5c(N)ncnc54)[C@H](O)[C@@H]3O)[C@@H](O)[C@H]2O)C=CC1 [NADH] | Both complexes have interpretable electron density for a molecule of NADH | Mth375_NU contained a single NADH molecule |  | 
2 | O=c1ccn([C@@H]2O[C@H](COP(=O)(O)OP(=O)(O)O)[C@@H](O)[C@H]2O)c(=O)[nH]1 [UDP] |  |  | A single molecule of UDP was bound to each active site of the Mth373_NU dimer | A single molecule of UDP was bound to each Mth375 complex
